Laboratory results reported in publication PMC11372837, “Albumin-Mediated Drug Uptake by Organic Anion Transporter 1/3 Is Real: Implications for the Prediction of Active Renal Secretion Clearance” (Molecular Pharmaceutics, 2024).
Read-outs that look alike come from different tables or passages of the source.

Columns and labels:
human serum albumin = human serum albumin (Homo sapiens, UniProt P02768); assay: Extent of albumin binding: high throughput equilibrium dialysis (fu,inc, Kd); type: in vitro ADME; settings: mean ± SD; for fraction unbound at 6 h: human, equilibrium dialysis 37 °C 6 h
Description: Briefly, cellulose membranes with MWCO of 12–14 kDa were submerged in distilled water for 1 h, followed by 20% ethanol/distilled water for at least 20 min. Prior to the start of the experiment, cellulose membranes were rinsed in distilled water and submerged in blank DPBS for 15 min. The HTDialysis device was assembled according to the manufacturer’s instructions (https://www.htdialysis.com). Blank DPBS was first added to the receiver side of the dialysis membranes, followed by DPBS spiked with HSA and the OAT1/3 substrate to the donor side. Each HSA concentration was tested in triplicates. The HTDialysis device was sealed with an adhesive sealing film and incubated in a water bath at 37 °C for 6 h shaken at 150 rpm. Once the assay was completed, aliquots from both receiver and donor wells were transferred to a 96-well plate and stored at −80 °C until analysis. DPBS spiked with the OAT1/3 substrate from both before and after incubation was stored to assess the recovery and stability of the samples. To prepare the sample for analysis, donor and receiver samples were matrix-matched and quenched with ice-cold acetonitrile containing an internal standard (0.5 μM gemfibrozil or 0.05 μM buspirone).

[1] = human, in vivo
[2] = in vivo, plasma renal clearance, clinical data; cited from earlier work
OAT1 = biological target: T1, OAT1 (Homo sapiens, UniProt Q4U2R8); assay: OAT1 uptake study in ciPTEC-OAT1
T1 sequence (Q4U2R8 1-563): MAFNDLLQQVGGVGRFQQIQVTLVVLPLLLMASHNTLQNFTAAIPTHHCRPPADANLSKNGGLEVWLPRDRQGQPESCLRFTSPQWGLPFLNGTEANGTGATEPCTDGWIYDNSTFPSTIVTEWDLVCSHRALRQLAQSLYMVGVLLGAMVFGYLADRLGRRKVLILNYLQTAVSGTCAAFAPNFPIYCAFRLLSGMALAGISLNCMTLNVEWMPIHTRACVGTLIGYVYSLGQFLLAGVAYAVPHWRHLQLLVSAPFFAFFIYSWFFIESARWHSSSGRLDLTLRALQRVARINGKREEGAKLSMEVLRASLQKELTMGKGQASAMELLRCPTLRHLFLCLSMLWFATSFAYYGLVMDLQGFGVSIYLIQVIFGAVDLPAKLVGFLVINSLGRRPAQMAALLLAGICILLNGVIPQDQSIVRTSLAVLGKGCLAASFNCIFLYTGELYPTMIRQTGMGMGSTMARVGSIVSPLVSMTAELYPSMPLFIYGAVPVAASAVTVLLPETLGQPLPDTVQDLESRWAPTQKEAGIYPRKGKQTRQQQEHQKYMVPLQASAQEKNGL

OAT3 = biological target: T2, OAT3 (Homo sapiens, UniProt Q8TCC7); assay: OAT3 uptake study in ciPTEC-OAT3; settings: for Vb,max OAT3, Active and Passive Uptake: eq 4 fitted to CLint,u; for Vb,max OAT3, Active and Passive Uptake / Vb,max OAT3, Active Uptake Only: mean ± S.D.; for Vb,max OAT3, Active Uptake Only: eq 4 fitted to CLint,u,active
T2 sequence (Q8TCC7 1-542): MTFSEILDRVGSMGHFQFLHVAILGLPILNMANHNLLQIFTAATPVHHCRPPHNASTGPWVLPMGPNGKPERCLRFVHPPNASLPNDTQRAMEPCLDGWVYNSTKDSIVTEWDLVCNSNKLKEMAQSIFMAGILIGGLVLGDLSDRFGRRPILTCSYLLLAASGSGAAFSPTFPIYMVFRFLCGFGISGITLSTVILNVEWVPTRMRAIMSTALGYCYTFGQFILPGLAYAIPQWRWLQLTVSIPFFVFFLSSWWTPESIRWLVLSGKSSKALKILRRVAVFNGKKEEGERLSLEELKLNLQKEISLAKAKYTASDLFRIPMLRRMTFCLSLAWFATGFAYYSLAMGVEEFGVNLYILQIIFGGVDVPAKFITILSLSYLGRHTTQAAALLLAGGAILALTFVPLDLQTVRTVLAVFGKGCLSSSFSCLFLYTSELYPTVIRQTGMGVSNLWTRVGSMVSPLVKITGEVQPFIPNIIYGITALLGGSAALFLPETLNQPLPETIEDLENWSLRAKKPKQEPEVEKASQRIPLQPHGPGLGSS

Sequence of human serum albumin (P02768 25-609): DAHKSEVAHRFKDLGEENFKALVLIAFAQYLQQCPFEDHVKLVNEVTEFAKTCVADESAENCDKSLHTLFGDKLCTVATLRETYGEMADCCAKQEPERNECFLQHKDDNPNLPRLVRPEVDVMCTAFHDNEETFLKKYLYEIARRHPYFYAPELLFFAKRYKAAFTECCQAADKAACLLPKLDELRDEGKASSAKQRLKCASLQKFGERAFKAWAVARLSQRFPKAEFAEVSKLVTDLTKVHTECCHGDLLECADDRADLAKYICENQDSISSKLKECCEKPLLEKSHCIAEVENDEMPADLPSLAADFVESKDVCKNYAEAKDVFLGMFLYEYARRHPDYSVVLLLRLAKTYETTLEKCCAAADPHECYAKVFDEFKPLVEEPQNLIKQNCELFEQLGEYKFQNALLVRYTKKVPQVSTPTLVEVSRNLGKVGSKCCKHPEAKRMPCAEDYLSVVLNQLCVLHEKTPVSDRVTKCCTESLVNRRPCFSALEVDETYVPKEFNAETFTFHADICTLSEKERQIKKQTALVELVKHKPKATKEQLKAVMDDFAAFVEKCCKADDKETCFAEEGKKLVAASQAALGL

Row | SMILES | Kd (human serum albumin; estimated using eq 3 from measured fu,inc) [µM] | fraction unbound at 6 h (human serum albumin; 1% human serum albumin in DPBS, 1% HSA, read-out: fu,inc (1%)) | fraction unbound at 6 h (human serum albumin; 4% HSA in DPBS, 4% HSA, read-out: fu,inc (4%)) | CLint,sec Observed [1] [L/h] | CLsec Observed [1] [L/h] | CLr Observed [2] [L/h] | OAT1 substrate status (uptake in ciPTEC-OAT1) (OAT1; control vs probenecid 300 μM) | Vb,max OAT1, Active and Passive Uptake (OAT1; eq 4 fitted to CLint,u, mean ± S.D.) [pmol/min/mg] | Vb,max OAT1, Active Uptake Only (OAT1; eq 4 fitted to CLint,u,active, Kd,m fixed from OAT3 data, mean ± S.D.) [pmol/min/mg] | OAT3 substrate status (uptake in ciPTEC-OAT3) (OAT3; control vs probenecid 300 μM) | Vb,max OAT3, Active and Passive Uptake (OAT3) [pmol/min/mg] | Vb,max OAT3, Active Uptake Only (OAT3) [pmol/min/mg] | Effect on OAT3-mediated uptake of the substrates (OAT3; probenecid 300 μM, 0% HSA)
1 | CCCCNc1cc(C(=O)O)cc(S(N)(=O)=O)c1Oc1ccccc1 [bumetanide] | 21.1 ± 1.4 | 0.141 ± 0.012 | 0.029 ± 0.003 | 680 | 5.51 | 5.77 | dual OAT1/3 substrates | 467 ± 49.4 | 447 ± 48 | dual OAT1/3 substrates | 492 ± 144 | 470 ± 132 | 
2 | NS(=O)(=O)c1cc(C(=O)O)c(NCc2ccco2)cc1Cl [furosemide] |  |  |  |  | 5.07 |  |  |  |  |  | 478 ± 139 | 453 ± 127 | 
3 | CCCN(CCC)S(=O)(=O)c1ccc(C(=O)O)cc1 [probenecid] |  |  |  |  |  |  |  |  |  |  |  |  | significantly reduced
